Values of other authors as cited in patent publication US20050187172A1, “Combination of a Cox-2 inhibitor and a DNA topoisomerase I inhibitor for treatment of neoplasia” (priority 2003, published 2005).
Counter-ions that a name gives are not always drawn. Like-named read-outs stand apart in the source and are kept apart here.

Columns and labels:
[1] = for Toxicity (reported toxic effects): Table 3, Toxicity column
[2] = not given; remark: listed apart in the source
[3] = mice, single IV infusion
[4] = Grade 2 or higher toxic effects
[5] = dose limiting hematological toxicity

CCc1c2c(nc3ccc(OC(=O)N4CCC(N5CCCCC5)CC4)cc13)-c1cc3c(c(=O)n1C2)COC(=O)[C@]3(O)CC [Irinotecan hydrochloride, (4S)-4,11-diethyl-4-hydroxy-9-((4-piperidinopiperidino)carbonyloxy)-1H-pyrano(3′,4′:6,7)indolizino(1,2-b)quinoline-3,14(4H,12H)dione hydrochloride.]
Lethality in mice: Lethality in mice: 111 mg/kg

CC[C@@]1(O)C(=O)OCc2c1cc1n(c2=O)Cc2cc3c(CN(C)C)c(O)ccc3nc2-1 [Topotecan, 1H-Pyrano[3′,4′:6,7]indolizino[1,2-b]quinoline-3,14(4,H,12H)-dione, 10-[(dimethylamino)methyl]-4-ethyl-4,9-dihydroxy-, (S)-]
Dose limiting toxicity (DLT) ([1]; in vivo): Myelosup-pression dose-
Maximally tolerated dose ([1]; × 5 d every 3 to 4 wk): dose: 1.5 mg/m^2 × 5 d

CCc1c2c(nc3ccc(OC(=O)N4CCC(N5CCCCC5)CC4)cc13)-c1cc3c(c(=O)n1C2)COC(=O)[C@]3(O)CC [Irinotecan]
Toxicity (reported toxic effects) [1]: Diarrhea and myelosup-

CC[C@@]1(O)C(=O)OCc2c1cc1n(c2=O)Cc2c-1nc1cc3c(cc1c2CN1CCN(C)CC1)OCCO3 [GG211]
Dose limiting toxicity (DLT) ([1]; in vivo): Hematologic toxicity

O=C1c2c(c3c4ccc(O)cc4n([C@@H]4O[C@H](CO)[C@@H](O)[C@H](O)[C@H]4O)c3c3[nH]c4cc(O)ccc4c23)C(=O)N1NC(CO)CO [J 107088, 5H-Indolo[2,3-a]pyrrolo[3,4-c]carbazole-5,7(6H)-dione, 12-β-D-glucopyranosyl-12,13-dihydro-2,10-dihydroxy-6-[[2-hydroxy-1-(hydroxymethyl)ethyl]amino]-]
Maximum tolerated dose ([1]; in vivo): dose: 7.5 mg/m2

CC[C@@]1(O)C(=O)OCc2c1cc1n(c2=O)Cc2cc3c([N+](=O)[O-])cccc3nc2-1 [rubitecan, 1H-Pyrano[3′,4′:6,7]indolizino[1,2-b]quinoline-3,14(4H,12H)-dione, -4-ethyl-4-hydroxy-10-nitro-, (S)-]
Maximum tolerated dose ([1]; over five consecutive days repeated every week): dose: 1.5 mg/m2/day
chemical cystitis [2, 4]: cystitis (25%),
diarrhea [2, 4]: diarrhea (32%), chemical
neutropenic sepsis [2, 4]: (21%), and weight loss
weight loss [2, 4]: (18%).
grade 4 anemia, share of patients [2, 5]: grade 4 anemia in 29%
thrombocytopenia (grade 4), share of patients [2, 5]: 18%. Grade 2 or higher

CC[C@@]1(O)C(=O)OCc2c1cc1n(c2=O)Cc2cc3c(CN(C)C)c(O)ccc3nc2-1 [Topotecan hydrochloride, (S)-10-((dimethylamino)methyl)-4-ethyl-4,9-dihydroxy-1H-pyrano (3′,4′:6,7)indolizino(1,2-B)quinoline-3,14-(4H,12H)-dione monohydrochloride]
Dose limiting toxicity (DLT) ([1]; in vivo): DLT: Bone marrow sup-
LD10 [3]: pression. LD10: mice 75 mg/m^2

CN(C)CCNC(=O)c1cccc2cc3ccccc3nc12.Cl.Cl [XR-5000, 4-Acridinecarboxamide, N-[2-(dimethylamino)ethyl]-, dihydrochloride]
Toxicity (reported toxic effects) [1]: infusion-related arm pain

CC[C@@]1(O)C(=O)OCc2c1cc1n(c2=O)Cc2cc3c(N)cccc3nc2-1 [9-aminocamptothecin, 1H-Pyrano[3′,4′:6,7]indolizino[1,2-b]quinoline-3,14(4H,12H)-dione, 10-amino-4-ethyl-4-hydroxy-, (S)-]
Dose limiting toxicity (DLT) ([1]; in vivo): neutropenia.
Maximum tolerated dose ([1]; in vivo): 45 mug/square mug/square metre/hr
